# Data reported in patent publication US20190292155A1, “THERAPEUTIC INHIBITORY COMPOUNDS” (LifeSci Pharmaceuticals, Inc., priority 2016, published 2019).
# Biological target: T1, human complement factor D (Homo sapiens, UniProt P00746)
# T1 construct: purchased R&D Systems 1824-SE
# Assay: In vitro enzyme inhibition of human complement factor D (Z-Lys-SBzl/DTNB, A405)
# Format: biochemical
# Details: not given
# Procedure: The ability of the compounds disclosed herein to inhibit human complement factor D inhibitory activity was quantified according to the 12-step protocol provided below. • 1. Prepare assay buffer: 50 mM Tris/HCl, pH 7.5, 1 M NaCl. • 2. […] Then dilute the serial concentrations of Nafamostat Mesilate 20-fold in assay buffer. • 3. […] 0.5% DMSO was in each well finally. • 4. […] Add 10 μl diluted test compounds duplicated into the 96-well plate. […] 0.5% DMSO was in each well finally. • 6. Dilute 20 mM substrate Z-Lys-SBzl (Bachem, Cat# M-1300) to 200 μM in assay buffer with 200 μM DTNB (Sigma, Catalog# D8130). • 7. […] Add 40 μl diluted Complement Factor D in the 96-well plate. • 8. Positive control well contains Complement Factor D without test compound. Negative control well contains neither Complement Factor D nor test compound. Using assay buffer, bring the total volume of all controls to 50 al. • 9. Pre-incubate the plate for 5 min at room temperature. • 10. Add 50 μl of diluted substrate/DTNB mixture into each well. […] For kinetic reading: Immediately start measuring absorbance (A405 nm) continuously and record data every 30 sec for 60 min. • 12. Data analysis • Inhibition activity of compound was evaluated by IC50. IC50 was calculated according the dose-response curve of compound fitted using GraphPadPrism with “log(inhibitor)-response (variable slope)” equation. • % inhibition was calculated by using following equation:
# [formula] • Mean(NC): The average value of the negative control wells' A405 nm values. • Mean(PC): The average value of the positive control wells' A405 nm values.
# T1 sequence (P00746 26-253): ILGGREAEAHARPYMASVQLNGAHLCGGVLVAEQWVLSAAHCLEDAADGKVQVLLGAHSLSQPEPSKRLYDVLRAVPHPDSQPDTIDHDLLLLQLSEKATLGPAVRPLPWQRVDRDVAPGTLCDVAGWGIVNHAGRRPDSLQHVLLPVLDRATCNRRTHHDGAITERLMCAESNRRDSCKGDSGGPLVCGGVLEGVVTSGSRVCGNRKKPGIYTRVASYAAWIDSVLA
row,SMILES,IC50 [nM]
1,"CC(CCO)N(CC(=O)NCc1cccc(Cl)c1F)C(=O)Cn1nc(C(N)=O)c2ccccc21 (stereo not shown) [Example 57, 1-(2-((2-((3-chloro-2-fluorobenzyl)amino)-2-oxoethyl)(4-hydroxybutan-2-yl)amino)-2-oxoethyl)-1H-indazole-3-carboxamide]",100 to 1000
2,"CC(CO)N(CC(=O)NCc1cccc(Cl)c1F)C(=O)Cn1nc(C(N)=O)c2ccccc21 (stereo not shown) [Example 58, 1-(2-((2-((3-chloro-2-fluorobenzyl)amino)-2-oxoethyl)(1-hydroxypropan-2-yl)amino)-2-oxoethyl)-1H-indazole-3-carboxamide]",100 to 1000
3,"NC(=O)c1nn(CC(=O)N(CC(=O)NCc2cccc(Cl)c2F)C2CC2)c2ccc(F)cc12 [Example 78, 1-(2-((2-((3-chloro-2-fluorobenzyl)amino)-2-oxoethyl)(cyclopropyl)amino)-2-oxoethyl)-5-fluoro-1H-indazole-3-carboxamide]",100 to 1000
4,"NC(=O)c1nn(CC(=O)N(CC(=O)NCc2cccc(Cl)c2F)C2CC2)c2ccc(Cl)cc12 [Example 80, 5-chloro-1-(2-((2-((3-chloro-2-fluorobenzyl)amino)-2-oxoethyl)(cyclopropyl)amino)-2-oxoethyl)-1H-indazole-3-carboxamide]",100 to 1000
5,"NC(=O)c1nn(CC(=O)N(CC(=O)NCc2c(F)ccc(Cl)c2F)C2CC2)c2ccccc12 [Example 82, 1-(2-((2-((3-chloro-2,6-difluorobenzyl)amino)-2-oxoethyl)(cyclopropyl)amino)-2-oxoethyl)-1H-indazole-3-carboxamide]",100 to 1000
6,"NC(=O)c1nn(CC(=O)N(CC(=O)NCc2cccc(Cl)c2F)C2CC2)c2cc(F)ccc12 [Example 84, 1-(2-((2-((3-chloro-2-fluorobenzyl)amino)-2-oxoethyl)(cyclopropyl)amino)-2-oxoethyl)-6-fluoro-1H-indazole-3-carboxamide]",100 to 1000
7,"NC(=O)c1nn(CC(=O)N(CC(=O)NCc2cccc(Cl)c2F)C2CC2)c2cc(Cl)ccc12 [Example 85, 6-chloro-1-(2-((2-((3-chloro-2-fluorobenzyl)amino)-2-oxoethyl)(cyclopropyl)amino)-2-oxoethyl)-1H-indazole-3-carboxamide]",100 to 1000
8,"N#Cc1ccc2c(C(N)=O)nn(CC(=O)N(CC(=O)NCc3cccc(Cl)c3F)C3CC3)c2c1 [Example 86, 1-(2-((2-((3-chloro-2-fluorobenzyl)amino)-2-oxoethyl)(cyclopropyl)amino)-2-oxoethyl)-6-cyano-1H-indazole-3-carboxamide]",100 to 1000

# Same assay, conditions: biochemical assay, substrate Z-Lys-SBzl; read-out: CFD IC50
row,SMILES,IC50 [nM]
1,"NC(=O)c1nn(CC(=O)N(CC(=O)NCc2cccc(Cl)c2F)C(CCO)C2CC2)c2ccccc12 (stereo not shown) [Example 73, 1-(2-((2-((3-chloro-2-fluorobenzyl)amino)-2-oxoethyl)(1-cyclopropyl-3-hydroxypropyl)amino)-2-oxoethyl)-1H-indazole-3-carboxamide]",1000 to 10000
2,"CC(CC(=O)O)N(CC(=O)NCc1cccc(Cl)c1F)C(=O)Cn1nc(C(N)=O)c2ccccc21 (stereo not shown) [Example 74, 3-(2-(3-carbamoyl-1H-indazol-1-yl)-N-(2-((3-chloro-2-fluorobenzyl)amino)-2-oxoethyl)acetamido)butanoic acid]",1000 to 10000
3,"NC(=O)CC(C1CC1)N(CC(=O)NCc1cccc(Cl)c1F)C(=O)Cn1nc(C(N)=O)c2ccccc21 (stereo not shown) [Example 75, 1-(2-((3-amino-1-cyclopropyl-3-oxopropyl)(2-((3-chloro-2-fluorobenzyl)amino)-2-oxoethyl)amino)-2-oxoethyl)-1H-indazole-3-carboxamide]",1000 to 10000
4,"CCOC(=O)CC(N(CC(=O)NCc1cccc(Cl)c1F)C(=O)Cn1nc(C(N)=O)c2ccccc21)C(F)(F)F (stereo not shown) [Example 77, ethyl 3-(2-(3-carbamoyl-1H-indazol-1-yl)-N-(2-((3-chloro-2-fluorobenzyl)amino)-2-oxoethyl)acetamido)-4,4,4-trifluorobutanoate]",1000 to 10000
5,"NC(=O)c1nn(CC(=O)N(CC(=O)NCc2cccc(Cl)c2F)C(CC(=O)O)C(F)(F)F)c2ccccc12 (stereo not shown) [Example 79, 3-(2-(3-carbamoyl-1H-indazol-1-yl)-N-(2-((3-chloro-2-fluorobenzyl)amino)-2-oxoethyl)acetamido)-4,4,4-trifluorobutanoic acid]",1000 to 10000

# Now from value to compound:
row,IC50 [nM],SMILES
1,1000 to 10000,"COC(=O)C(C)N(CC(=O)NCc1cccc(Cl)c1F)C(=O)Cn1nc(C(N)=O)c2ccccc21 (stereo not shown) [Example 59, methyl 2-(2-(3-carbamoyl-1H-indazol-1-yl)-N-(2-((3-chloro-2-fluorobenzyl)amino)-2-oxoethyl)acetamido)propanoate]"
2,100 to 1000,"CC(CCF)N(CC(=O)NCc1cccc(Cl)c1F)C(=O)Cn1nc(C(N)=O)c2ccccc21 (stereo not shown) [Example 60, 1-(2-((2-((3-chloro-2-fluorobenzyl)amino)-2-oxoethyl)(4-fluorobutan-2-yl)amino)-2-oxoethyl)-1H-indazole-3-carboxamide]"
3,1000 to 10000,"CCC(COC)N(CC(=O)NCc1cccc(Cl)c1F)C(=O)Cn1nc(C(N)=O)c2ccccc21 (stereo not shown) [Example 61, 1-(2-((2-((3-chloro-2-fluorobenzyl)amino)-2-oxoethyl)(1-methoxybutan-2-yl)amino)-2-oxoethyl)-1H-indazole-3-carboxamide]"
4,1000 to 10000,"CC(C(N)=O)N(CC(=O)NCc1cccc(Cl)c1F)C(=O)Cn1nc(C(N)=O)c2ccccc21 (stereo not shown) [Example 62, 1-(2-((1-amino-1-oxopropan-2-yl)(2-((3-chloro-2-fluorobenzyl)amino)-2-oxoethyl)amino)-2-oxoethyl)-1H-indazole-3-carboxamide]"
5,100 to 1000,"CC1CC1N(CC(=O)NCc1cccc(Cl)c1F)C(=O)Cn1nc(C(N)=O)c2ccccc21 (stereo not shown) [Example 63, 1-(2-((2-((3-chloro-2-fluorobenzyl)amino)-2-oxoethyl)(2-methylcyclopropyl)amino)-2-oxoethyl)-1H-indazole-3-carboxamide]"
6,100 to 1000,"CC(N(CC(=O)NCc1cccc(Cl)c1F)C(=O)Cn1nc(C(N)=O)c2ccccc21)C(C)(C)C (stereo not shown) [Example 64, 1-(2-((2-((3-chloro-2-fluorobenzyl)amino)-2-oxoethyl)(3,3-dimethylbutan-2-yl)amino)-2-oxoethyl)-1H-indazole-3-carboxamide]"
7,100 to 1000,"CC(c1ccccc1)N(CC(=O)NCc1cccc(Cl)c1F)C(=O)Cn1nc(C(N)=O)c2ccccc21 (stereo not shown) [Example 65, 1-(2-((2-((3-chloro-2-fluorobenzyl)amino)-2-oxoethyl)(1-phenylethyl)amino)-2-oxoethyl)-1H-indazole-3-carboxamide]"
8,100 to 1000,"CC(CF)N(CC(=O)NCc1cccc(Cl)c1F)C(=O)Cn1nc(C(N)=O)c2ccccc21 (stereo not shown) [Example 66, 1-(2-((2-((3-chloro-2-fluorobenzyl)amino)-2-oxoethyl)(1-fluoropropan-2-yl)amino)-2-oxoethyl)-1H-indazole-3-carboxamide]"
9,100 to 1000,"CC(N(CC(=O)NCc1cccc(Cl)c1F)C(=O)Cn1nc(C(N)=O)c2ccccc21)C(F)(F)F (stereo not shown) [Example 67, 1-(2-((2-((3-chloro-2-fluorobenzyl)amino)-2-oxoethyl)(1,1,1-trifluoropropan-2-yl)amino)-2-oxoethyl)-1H-indazole-3-carboxamide]"
10,100 to 1000,"COCC(C)N(CC(=O)NCc1cccc(Cl)c1F)C(=O)Cn1nc(C(N)=O)c2ccccc21 (stereo not shown) [Example 68, 1-(2-((2-((3-chloro-2-fluorobenzyl)amino)-2-oxoethyl)(1-methoxypropan-2-yl)amino)-2-oxoethyl)-1H-indazole-3-carboxamide]"
11,1000 to 10000,"NC(=O)c1nn(CC(=O)N(CC(=O)NCc2cccc(Cl)c2F)C(CO)C2CC2)c2ccccc12 (stereo not shown) [Example 69, 1-(2-((2-((3-chloro-2-fluorobenzyl)amino)-2-oxoethyl)(1-cyclopropyl-2-hydroxyethyl)amino)-2-oxoethyl)-1H-indazole-3-carboxamide]"
12,100 to 1000,"CCOC(=O)CC(C)N(CC(=O)NCc1cccc(Cl)c1F)C(=O)Cn1nc(C(N)=O)c2ccccc21 (stereo not shown) [Example 72, ethyl 3-(2-(3-carbamoyl-1H-indazol-1-yl)-N-(2-((3-chloro-2-fluorobenzyl)amino)-2-oxoethyl)acetamido)butanoate]"
13,100 to 1000,"CC(CC(N)=O)N(CC(=O)NCc1cccc(Cl)c1F)C(=O)Cn1nc(C(N)=O)c2ccccc21 (stereo not shown) [Example 76, 1-(2-((4-amino-4-oxobutan-2-yl)(2-((3-chloro-2-fluorobenzyl)amino)-2-oxoethyl)amino)-2-oxoethyl)-1H-indazole-3-carboxamide]"
14,< 100,"NC(=O)c1nn(CC(=O)N(CC(=O)NCc2cccc(Cl)c2F)C2CC2)c2c(Cl)cccc12 [Example 81, 7-chloro-1-(2-((2-((3-chloro-2-fluorobenzyl)amino)-2-oxoethyl)(cyclopropyl)amino)-2-oxoethyl)-1H-indazole-3-carboxamide]"
15,100 to 1000,"NC(=O)c1nn(CC(=O)N(CC(=O)NCc2ccc(F)c(Cl)c2F)C2CC2)c2ccccc12 [Example 83, 1-(2-((2-((3-chloro-2,4-difluorobenzyl)amino)-2-oxoethyl)(cyclopropyl)amino)-2-oxoethyl)-1H-indazole-3-carboxamide]"
